We go through 23 molecules from patent US10358446B2, “Bruton's tyrosine kinase inhibitors” (Zibo Biopolar Changsheng Pharmaceutical Co. Ltd., priority 2015, dated 2019).

BTK, sequence (Q06187 whole entry, species assumed): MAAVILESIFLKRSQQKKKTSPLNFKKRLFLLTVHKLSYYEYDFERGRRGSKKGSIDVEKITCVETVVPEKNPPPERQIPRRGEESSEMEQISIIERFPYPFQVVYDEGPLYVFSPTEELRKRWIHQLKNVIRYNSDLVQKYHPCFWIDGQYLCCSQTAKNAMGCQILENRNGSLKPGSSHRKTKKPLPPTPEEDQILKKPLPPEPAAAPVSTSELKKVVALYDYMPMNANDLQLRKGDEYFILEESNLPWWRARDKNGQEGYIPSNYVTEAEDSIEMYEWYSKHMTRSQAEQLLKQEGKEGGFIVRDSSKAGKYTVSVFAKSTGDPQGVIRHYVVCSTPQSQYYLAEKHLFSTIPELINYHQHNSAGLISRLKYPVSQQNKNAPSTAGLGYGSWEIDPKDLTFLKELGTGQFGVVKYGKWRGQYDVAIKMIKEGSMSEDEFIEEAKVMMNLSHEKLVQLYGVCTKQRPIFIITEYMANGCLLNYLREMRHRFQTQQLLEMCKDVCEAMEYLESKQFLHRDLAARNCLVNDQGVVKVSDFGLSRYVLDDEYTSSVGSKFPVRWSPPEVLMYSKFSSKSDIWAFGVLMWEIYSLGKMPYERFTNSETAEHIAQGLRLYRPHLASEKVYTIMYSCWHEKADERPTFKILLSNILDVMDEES

The assay concerns the target BTK (Homo sapiens (Human), UniProt Q06187). The assay can be described thus: Btk kinase assay (HTRF). It counts as biochemical. Particulars: [ATP]=80 μM, BTK=3.4 nM; read-out: BTK Inhibition. Summed up: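 HTRF kinase read-out (665/615 nm ratio, excitation 330 nm) after EDTA quench and 1 h detection incubation. Reaction: 3.4 nM BTK, ATP 80 μM, peptide substrate 1 μM, compound, HEPES pH 7.0 buffer, 1 h; IC50 derived using uninhibited and enzyme-free controls.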
Background: TR-FRET usually uses a lanthanide donor and a delayed reading to cut background.
`C=CC(=O)Nc1cccc(-n2c(=O)n(-c3ccc(NC(=O)c4ccccc4)cc3)c3cnccc32)c1` [Example 261, N-(4-(1-(3-acrylamidophenyl)-2-oxo-1H-imidazo[4,5-c]pyridin-3(2H)-yl)phenyl)benzamide]: the IC50 lay in the range of 100 to 1000 nM.

For `C=CC(=O)Nc1cccc(-n2c(=O)n(-c3ccc(Oc4cc(F)cc(F)c4)cc3)c3cnccc32)c1` [Example 127, N-(3-(3-(4-(3,5-difluorophenoxy)phenyl)-2-oxo-2,3-dihydro-1H-imidazo[4,5-c]pyridin-1-yl)phenyl)acrylamide], the IC50 was in the range of 100 to 1000 nM.

Turning to `C=CC(=O)Nc1cccc(-n2c(=O)n(-c3ccc(-c4ccccc4)cc3)c3cnccc32)c1` [Example 271, N-(3-(3-([1,1′-biphenyl]-4-yl)-2-oxo-2,3-dihydro-1H-imidazo[4,5-c]pyridin-1-yl)phenyl)acrylamide], the IC50 was 10 to 100 nM.

As for `C=CC(=O)N1CC[C@@H](n2c(=O)n(-c3ccc(Oc4cccc(Cl)c4)cc3)c3cnccc32)C1` [Example 72, (R)-1-(1-acryloylpyrrolidin-3-yl)-3-(4-(3-chlorophenoxy)phenyl)-1H-imidazo[4,5-c]pyridin-2(3H)-one], the IC50 lay within 10 to 100 nM.

Turning to `C=CC(=O)N1CC[C@@H](n2c(=O)n(-c3ccc(Oc4ccccc4)cc3)c3c([N+](=O)[O-])cccc32)C1` [Example 189, (R)-1-(1-acryloylpyrrolidin-3-yl)-4-nitro-3-(4-phenoxyphenyl)-1H-benzo[d]imidazol-2(3H)-one], the IC50 was not below 10000 nM.

On to `C=CC(=O)N1CC[C@@H](n2c(=O)n(-c3ccc(Oc4ccccc4C)cc3)c3cnccc32)C1` [Example 83, (R)-1-(1-acryloylpyrrolidin-3-yl)-3-(4-(o-tolyloxy)phenyl)-1H-imidazo[4,5-c]pyridin-2(3H)-one], for which the IC50 lay within 10 to 100 nM.

Consider `C=CC(=O)Nc1cccc(-n2c(=O)n(-c3cccc(Oc4cccc(F)c4)c3)c3cnccc32)c1` [Example 75, N-(3-(3-(3-(3-fluorophenoxy)phenyl)-2-oxo-2,3-dihydro-1H-imidazo[4,5-c]pyridin-1-yl)phenyl)acrylamide], for which the IC50 was 10 to 100 nM.

As for `C=CC(=O)Nc1cccc(-n2c(=O)n(-c3ccc(Oc4ccc(OC)c(OC)c4)cc3)c3cnccc32)c1` [Example 131, N-(3-(3-(4-(3,4-dimethoxyphenoxy)phenyl)-2-oxo-2,3-dihydro-1H-imidazo[4,5-c]pyridin-1-yl)phenyl)acrylamide], the IC50 fell in the range of 10 to 100 nM.

For the molecule `C=CC(=O)N1CC[C@@H](n2c(=O)n(-c3ccc(OCc4ccc(F)c(F)c4)cc3)c3cnccc32)C1` [Example 214, (R)-1-(1-acryloylpyrrolidin-3-yl)-3-(4-((3,4-difluorobenzyl)oxy)phenyl)-1H-imidazo[4,5-c]pyridin-2(3H)-one], the IC50 fell in the range of 1000 to 10000 nM.

As for `C=CC(=O)N1CCC[C@@H](n2c(=O)n(-c3ccc(Oc4cccc(C)c4C)cc3)c3cnccc32)C1` [Example 58, (R)-1-(1-acryloylpiperidin-3-yl)-3-(4-(2,3-dimethylphenoxy)phenyl)-1H-imidazo[4,5-c]pyridin-2(3H)-one], the IC50 was 10 to 100 nM.

As to `C=CC(=O)N1CC[C@@H](n2c(=O)n(-c3ccc(Oc4cccc(OC(C)C)c4)cc3)c3cnccc32)C1` [Example 25, (R)-1-(1-acryloylpyrrolidin-3-yl)-3-(4-(3-isopropoxyphenoxy)phenyl)-1H-imidazo[4,5-c]pyridin-2(3H)-one], the IC50 was not above 10 nM.

Consider `C=CC(=O)N1CC[C@@H](n2c(=O)n(-c3ccc(OCc4ccc(C(F)(F)F)cc4)c(Cl)c3)c3cnccc32)C1` [Example 205, (R)-1-(1-acryloylpyrrolidin-3-yl)-3-(3-chloro-4-((4-(trifluoromethyl)benzyl)oxy)phenyl)-1H-imidazo[4,5-c]pyridin-2(3H)-one], for which the IC50 fell in the range of 100 to 1000 nM.

Regarding `C=CC(=O)Nc1cccc(-n2c(=O)n(-c3ccc(Oc4cccc(C(C)C)c4)cc3)c3cnccc32)c1` [Example 114, N-(3-(3-(4-(3-isopropylphenoxy)phenyl)-2-oxo-2,3-dihydro-1H-imidazo[4,5-c]pyridin-1-yl)phenyl)acrylamide], the IC50 was 10 to 100 nM.

Regarding `C=CC(=O)N1CCC[C@@H](n2c(=O)n(-c3ccc(Oc4ccccc4)c(Cl)c3)c3cnccc32)C1` [Example 107, (R)-1-(1-acryloylpiperidin-3-yl)-3-(3-chloro-4-phenoxyphenyl)-1H-imidazo[4,5-c]pyridin-2(3H)-one], the IC50 lay within 10 to 100 nM.

On to `CN(C/C=C/C(=O)N1CC[C@@H](n2c(=O)n(-c3ccc(Oc4ccccc4)cc3)c3cnccc32)C1)C1CC1` [Example 187, (R,E)-1-(1-(4-(cyclopropyl(methyl)amino)but-2-enoyl)pyrrolidin-3-yl)-3-(4-phenoxyphenyl)-1H-imidazo[4,5-c]pyridin-2(3H)-one], for which the IC50 was 100 to 1000 nM.

Take `C=CC(=O)Nc1cccc(-n2c(=O)n(-c3ccc(Oc4cccc(Cl)c4)cc3)c3cnccc32)c1` [Example 69, N-(3-(3-(4-(3-chlorophenoxy)phenyl)-2-oxo-2,3-dihydro-1H-imidazo[4,5-c]pyridin-1-yl)phenyl)acrylamide]: the IC50 was 10 to 100 nM.

`C=CC(=O)Nc1cccc(-n2c(=O)n(-c3ccc(OCc4ccc(Cl)cc4)cc3)c3cnccc32)c1` [Example 221, N-(3-(3-(4-((4-chlorobenzyl)oxy)phenyl)-2-oxo-2,3-dihydro-1H-imidazo[4,5-c]pyridin-1-yl)phenyl)acrylamide]: the IC50 was 10 to 100 nM.

Regarding `C=C(C)C(=O)N1CC[C@@H](n2c(=O)n(-c3cccc(Oc4ccccc4)c3)c3cnccc32)C1` [Example 156, (R)-1-(1-methacryloylpyrrolidin-3-yl)-3-(3-phenoxyphenyl)-1H-imidazo[4,5-c]pyridin-2(3H)-one], the IC50 fell in the range of 1000 to 10000 nM.

In the case of `C=CC(=O)Nc1cccc(-n2c(=O)n(-c3ccc(Oc4cc(Cl)cc(OC)c4)cc3)c3cnccc32)c1` [Example 71, N-(3-(3-(4-(3-chloro-5-methoxyphenoxy)phenyl)-2-oxo-2,3-dihydro-1H-imidazo[4,5-c]pyridin-1-yl)phenyl)acrylamide], the IC50 lay in the range of 100 to 1000 nM.

On to `C=CC(=O)Nc1cccc(-n2c(=O)n(-c3ccc(OCc4ccccc4F)c(F)c3)c3cnccc32)c1` [Example 217, N-(3-(3-(3-fluoro-4-((2-fluorobenzyl)oxy)phenyl)-2-oxo-2,3-dihydro-1H-imidazo[4,5-c]pyridin-1-yl)phenyl)acrylamide], for which the IC50 lay within 100 to 1000 nM.

Regarding `C=CC(=O)N1CCC[C@@H](n2c(=O)n(-c3ccc(Oc4cccc(OC)c4F)cc3)c3cncc(OCC)c32)C1` [Example 167, (R)-1-(1-acryloylpiperidin-3-yl)-7-ethoxy-3-(4-(2-fluoro-3-methoxyphenoxy)phenyl)-1H-imidazo [4,5-c]pyridin-2(3H)-one], the IC50 is not above 10 nM.

With `C=CC(=O)Nc1cccc(-n2c(=O)n(-c3ccc(OCc4ccccc4F)c(Cl)c3)c3cnccc32)c1` [Example 235, N-(3-(3-(3-chloro-4-((2-fluorobenzyl)oxy)phenyl)-2-oxo-2,3-dihydro-1H-imidazo[4,5-c]pyridin-1-yl)phenyl)acrylamide], the IC50 lay within 10 to 100 nM.

For the molecule `C=CC(=O)N1CC[C@@H](n2c(=O)n(-c3ccc(OCc4ccc(Cl)c(Cl)c4)cc3)c3cnccc32)C1` [Example 198, (R)-1-(1-acryloylpyrrolidin-3-yl)-3-(4-((3,4-dichlorobenzyl)oxy)phenyl)-1H-imidazo[4,5-c]pyridin-2(3H)-one], the IC50 was in the range of 100 to 1000 nM.
